# Patent US11007128B2, “Composition for preventing or treating dental erosion” (MEDA OTC AB, priority 2014, dated 2021)
# Assays:
# [1] = 0.15% HF at pH 2.58, 5 minutes at 37° C.; then 2% citric acid 15 minutes at 37° C.
# Text: A low vacuum scanning electron microscope, JEOL JSM 6610 LV, was used for studying surfaces.
# SEM pictures were taken with 5000 times magnification (SEM×5000).
# A human ex vivo tooth (premolar) was received from a dentist practice. The tooth was stored in Ringer solution and kept in refrigerator.
# The effect of the HF treatment on HA surfaces was verified using an ex vivo human premolar tooth. The tooth had been split into two halves before the experiment (tooth 1:1 and tooth 1:2). The two tooth halves were rinsed with distilled water. One tooth half was placed in a 50 ml plastic bottle containing 2% citric acid and then allowed to incubate at 37° C. for 15 minutes under gentle agitation. The tooth was then rinsed with distilled water for a few minutes and then put on tissue paper to dry. […] The tooth half was rinsed with distilled water and then immersed in 2% citric acid and then allowed to incubate at 37° C. for 15 minutes under gentle agitation. The tooth was then rinsed with distilled water and left to dry on tissue paper for a few minutes.
# [2] = 0.2% HF solution, pH 2.0, ~0.1 mol/l F; sound enamel; cited from earlier work
smiles,measurement,setting,value
"F [HF, hydrogen fluoride]",SEM: protection of enamel from etching,[1],clearly protected from etching
same,duration of protective effect against citric acid attack,[2],at least 1 week
